Laboratory results: patent US20240132521A1, “COMPOUNDS AND METHODS FOR MODULATING HER2” (Iambic Therapeutics, Inc., priority 2022, published 2024)

How the values were obtained:
Type in all cases: cell-based
[1] = target: BaF3_EGFRWT cells (Homo sapiens, UniProt P00533); assay: Cell growth inhibition assay (CellTiterGlo), BaF3_EGFRWT; conditions: 3-day treatment, CellTiterGlo, read-out: Cell growth inhibition activity, EGFR WT
[2] = target: BaF3_HER2WT cells (Homo sapiens, UniProt P04626); assay: Cell growth inhibition assay (CellTiterGlo), BaF3_HER2WT; conditions: 3-day treatment, CellTiterGlo, read-out: Cell growth inhibition activity, HER2 WT
[3] = target: BaF3_HER2YVMA cells (Homo sapiens, UniProt P04626, DUP772-775, cells depend on it); assay: Cell growth inhibition assay (CellTiterGlo), BaF3_HER2YVMA; conditions: 3-day treatment, CellTiterGlo, read-out: Cell growth inhibition activity, HER2 - YVMA
Chain of BaF3_HER2YVMA cells (P04626 with tags, fused parts or gaps DUP772-775): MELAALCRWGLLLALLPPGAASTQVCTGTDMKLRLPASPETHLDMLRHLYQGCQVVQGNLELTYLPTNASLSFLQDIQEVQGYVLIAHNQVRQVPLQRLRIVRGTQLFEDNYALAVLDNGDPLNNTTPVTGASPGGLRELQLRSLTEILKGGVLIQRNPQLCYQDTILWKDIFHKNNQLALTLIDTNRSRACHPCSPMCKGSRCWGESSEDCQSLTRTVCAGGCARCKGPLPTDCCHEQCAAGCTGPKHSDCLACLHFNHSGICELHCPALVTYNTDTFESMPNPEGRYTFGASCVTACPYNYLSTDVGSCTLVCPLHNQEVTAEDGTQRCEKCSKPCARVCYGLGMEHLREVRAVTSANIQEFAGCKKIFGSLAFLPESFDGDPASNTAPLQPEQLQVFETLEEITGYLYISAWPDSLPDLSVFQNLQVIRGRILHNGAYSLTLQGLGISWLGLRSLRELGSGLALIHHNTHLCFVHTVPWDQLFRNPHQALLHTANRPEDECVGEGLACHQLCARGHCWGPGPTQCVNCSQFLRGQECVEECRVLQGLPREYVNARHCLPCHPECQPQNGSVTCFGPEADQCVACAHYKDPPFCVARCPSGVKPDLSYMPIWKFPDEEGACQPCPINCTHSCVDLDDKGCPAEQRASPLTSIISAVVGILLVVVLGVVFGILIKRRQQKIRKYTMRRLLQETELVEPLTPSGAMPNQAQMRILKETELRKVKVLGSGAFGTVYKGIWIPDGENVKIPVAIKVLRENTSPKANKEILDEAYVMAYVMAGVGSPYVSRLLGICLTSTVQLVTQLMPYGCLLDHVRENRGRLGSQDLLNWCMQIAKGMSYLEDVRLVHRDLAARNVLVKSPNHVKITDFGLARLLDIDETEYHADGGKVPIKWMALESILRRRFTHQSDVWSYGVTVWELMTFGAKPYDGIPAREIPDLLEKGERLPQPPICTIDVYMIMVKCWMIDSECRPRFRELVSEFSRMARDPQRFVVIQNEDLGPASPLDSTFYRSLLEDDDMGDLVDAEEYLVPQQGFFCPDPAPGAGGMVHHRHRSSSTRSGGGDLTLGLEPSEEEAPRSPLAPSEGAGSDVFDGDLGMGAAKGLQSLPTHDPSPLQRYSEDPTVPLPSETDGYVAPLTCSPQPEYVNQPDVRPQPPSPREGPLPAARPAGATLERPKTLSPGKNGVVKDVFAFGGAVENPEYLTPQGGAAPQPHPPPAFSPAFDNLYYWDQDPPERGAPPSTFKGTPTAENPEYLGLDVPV

Chain of BaF3_EGFRWT cells (P00533 whole entry, change not shown): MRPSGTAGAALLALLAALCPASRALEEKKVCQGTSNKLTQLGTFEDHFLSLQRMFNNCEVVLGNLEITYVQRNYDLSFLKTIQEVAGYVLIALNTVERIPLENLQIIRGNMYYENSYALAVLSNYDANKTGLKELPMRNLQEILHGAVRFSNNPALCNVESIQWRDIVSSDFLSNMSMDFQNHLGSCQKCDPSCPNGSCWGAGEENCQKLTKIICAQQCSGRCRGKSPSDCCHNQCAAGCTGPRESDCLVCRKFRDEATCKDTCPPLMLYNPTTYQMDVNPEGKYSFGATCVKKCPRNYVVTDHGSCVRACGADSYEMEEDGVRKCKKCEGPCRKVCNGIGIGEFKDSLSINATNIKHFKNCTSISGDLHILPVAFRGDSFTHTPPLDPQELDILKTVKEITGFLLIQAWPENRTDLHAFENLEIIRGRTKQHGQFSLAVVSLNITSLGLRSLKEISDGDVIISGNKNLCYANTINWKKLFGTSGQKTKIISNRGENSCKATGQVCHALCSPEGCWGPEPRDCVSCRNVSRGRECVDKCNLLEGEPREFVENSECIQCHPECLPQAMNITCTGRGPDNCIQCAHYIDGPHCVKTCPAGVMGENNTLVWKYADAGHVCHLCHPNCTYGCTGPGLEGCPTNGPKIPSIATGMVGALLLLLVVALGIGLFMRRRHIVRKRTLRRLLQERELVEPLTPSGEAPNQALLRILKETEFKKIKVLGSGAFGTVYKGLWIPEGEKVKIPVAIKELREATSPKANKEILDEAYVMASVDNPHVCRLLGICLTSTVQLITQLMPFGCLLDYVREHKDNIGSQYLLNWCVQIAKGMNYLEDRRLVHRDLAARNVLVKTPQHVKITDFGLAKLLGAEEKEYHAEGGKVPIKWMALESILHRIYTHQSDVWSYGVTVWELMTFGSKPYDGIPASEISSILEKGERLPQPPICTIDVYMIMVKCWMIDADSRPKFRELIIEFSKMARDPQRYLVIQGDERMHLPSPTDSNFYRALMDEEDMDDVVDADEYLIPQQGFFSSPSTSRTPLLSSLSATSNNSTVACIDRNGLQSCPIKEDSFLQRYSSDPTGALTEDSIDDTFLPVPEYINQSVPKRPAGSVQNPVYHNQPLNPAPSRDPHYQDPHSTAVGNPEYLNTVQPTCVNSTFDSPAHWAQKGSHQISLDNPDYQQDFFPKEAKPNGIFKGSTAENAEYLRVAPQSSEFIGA
Chain of BaF3_HER2WT cells (P04626 whole entry, change not shown): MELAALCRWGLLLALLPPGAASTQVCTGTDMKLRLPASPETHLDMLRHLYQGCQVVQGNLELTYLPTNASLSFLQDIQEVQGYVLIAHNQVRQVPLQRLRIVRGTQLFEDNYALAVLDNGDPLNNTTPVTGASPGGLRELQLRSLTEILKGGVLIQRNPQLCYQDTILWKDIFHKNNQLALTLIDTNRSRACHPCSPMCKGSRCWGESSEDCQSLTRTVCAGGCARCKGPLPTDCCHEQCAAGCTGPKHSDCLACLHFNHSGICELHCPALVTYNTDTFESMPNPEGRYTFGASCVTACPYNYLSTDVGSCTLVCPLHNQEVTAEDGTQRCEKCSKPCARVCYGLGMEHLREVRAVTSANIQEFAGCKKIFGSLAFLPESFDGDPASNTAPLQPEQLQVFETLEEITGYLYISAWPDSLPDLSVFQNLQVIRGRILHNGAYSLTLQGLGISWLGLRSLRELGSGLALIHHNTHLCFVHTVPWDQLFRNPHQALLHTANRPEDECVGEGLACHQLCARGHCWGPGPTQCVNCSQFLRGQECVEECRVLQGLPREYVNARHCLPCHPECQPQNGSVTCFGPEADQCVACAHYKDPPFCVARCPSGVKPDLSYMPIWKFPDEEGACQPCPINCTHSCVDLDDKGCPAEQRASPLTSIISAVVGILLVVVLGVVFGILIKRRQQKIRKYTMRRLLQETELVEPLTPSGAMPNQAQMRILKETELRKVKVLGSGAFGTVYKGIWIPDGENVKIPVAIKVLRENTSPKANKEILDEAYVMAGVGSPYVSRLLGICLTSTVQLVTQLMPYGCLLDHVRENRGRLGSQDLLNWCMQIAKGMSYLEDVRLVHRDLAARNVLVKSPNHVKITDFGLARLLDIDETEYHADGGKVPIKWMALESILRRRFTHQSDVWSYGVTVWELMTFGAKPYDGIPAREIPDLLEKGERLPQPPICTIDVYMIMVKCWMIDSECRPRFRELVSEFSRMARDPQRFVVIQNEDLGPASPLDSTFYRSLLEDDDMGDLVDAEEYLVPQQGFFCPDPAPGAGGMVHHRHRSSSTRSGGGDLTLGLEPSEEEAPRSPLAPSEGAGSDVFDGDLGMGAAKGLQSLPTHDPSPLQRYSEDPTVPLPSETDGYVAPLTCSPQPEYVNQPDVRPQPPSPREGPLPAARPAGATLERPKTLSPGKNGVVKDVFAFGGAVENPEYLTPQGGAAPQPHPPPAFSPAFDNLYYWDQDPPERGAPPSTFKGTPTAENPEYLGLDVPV

SMILES | GI50 [1] | GI50 [2] | GI50 [3]
C=CC(=O)N(C)C1CCN(c2ccn3ncnc(Nc4ccc(Oc5ccn6ncnc6c5)c(C)c4)c23)C1 (stereo not drawn) [Example 72, N-(1-(4-((4-([1,2,4]triazolo[1,5-a]pyridin-7-yloxy)-3-methylphenyl)amino)pyrrolo[2,1-f][1,2,4]triazin-5-yl)pyrrolidin-3-yl)-N-methylacrylamide] | 1.5 to 5 µM | < 0.2 µM | < 0.2 µM
Cc1cc(Nc2ncnn3ccc(N4CCC(N(C)C(=O)/C=C/CN(C)C)CC4)c23)ccc1Oc1ccn2ncnc2c1 [Example 73, (E)-N-(1-(4-((4-([1,2,4]triazolo[1,5-a]pyridin-7-yloxy)-3-methylphenyl)amino)pyrrolo[2,1-f][1,2,4]triazin-5-yl)piperidin-4-yl)-4-(dimethylamino)-N-methylbut-2-enamide] | 1.5 to 5 µM | < 0.2 µM | 0.5 to 1.5 µM
C=CC(=O)N(C)C1CCN(c2ccn3ncnc(Nc4ccc(Oc5ccn6ncnc6c5)c(C)c4)c23)CC1 [Example 74, N-(1-(4-((4-([1,2,4]triazolo[1,5-a]pyridin-7-yloxy)-3-methylphenyl)amino)pyrrolo[2,1-f][1,2,4]triazin-5-yl)piperidin-4-yl)-N-methylacrylamide] | 1.5 to 5 µM | < 0.2 µM | 0.5 to 1.5 µM
C=CC(=O)N1CCN(c2ccn3ncnc(Nc4ccc(Oc5ccn6ncnc6c5)c(C)c4)c23)CC12CC2 [Example 75, 1-(7-(4-((4-([1,2,4]triazolo[1,5-a]pyridin-7-yloxy)-3-methylphenyl)amino)pyrrolo[2,1-f][1,2,4]triazin-5-yl)-4,7-diazaspiro[2.5]octan-4-yl)prop-2-en-1-one] | 0.5 to 1.5 µM | < 0.2 µM | < 0.2 µM
C=CC(=O)NC1CCCN(c2ccn3ncnc(Nc4ccc(Oc5ccn6ncnc6c5)c(C)c4)c23)C1 (stereo not drawn) [Example 76, N-(1-(4-((4-([1,2,4]triazolo[1,5-a]pyridin-7-yloxy)-3-methylphenyl)amino)pyrrolo[2,1-f][1,2,4]triazin-5-yl)piperidin-3-yl)acrylamide] | 1.5 to 5 µM | < 0.2 µM | 0.5 to 1.5 µM
C=CC(=O)N1CC(N(C)c2ccn3ncnc(Nc4ccc(Oc5ccn6ncnc6c5)c(C)c4)c23)C1 [Example 77, 1-(3-((4-((4-([1,2,4]triazolo[1,5-a]pyridin-7-yloxy)-3-methylphenyl)amino)pyrrolo[2,1-f][1,2,4]triazin-5-yl)(methyl)amino)azetidin-1-yl)prop-2-en-1-one] | 1.5 to 5 µM | 0.2 to 0.5 µM | 1.5 to 5 µM
C=CC(=O)NC1CCN(c2ccn3ncnc(Nc4ccc(Oc5ccn6ncnc6c5)c(C)c4)c23)CC1 [Example 78, N-(1-(4-((4-([1,2,4]triazolo[1,5-a]pyridin-7-yloxy)-3-methylphenyl)amino)pyrrolo[2,1-f][1,2,4]triazin-5-yl)piperidin-4-yl)acrylamide] | 1.5 to 5 µM | < 0.2 µM | 0.2 to 0.5 µM
C=CC(=O)NC1CCN(c2ccn3ncnc(Nc4ccc(Oc5ccn6ncnc6c5)c(C)c4)c23)C1 (stereo not drawn) [Example 79, N-(1-(4-((4-([1,2,4]triazolo[1,5-a]pyridin-7-yloxy)-3-methylphenyl)amino)pyrrolo[2,1-f][1,2,4]triazin-5-yl)pyrrolidin-3-yl)acrylamide] | 1.5 to 5 µM | < 0.2 µM | 0.2 to 0.5 µM
Cc1cc(Nc2ncnn3ccc(N4CCCN(C(=O)/C=C/CN5CCOCC5)CC4)c23)ccc1Oc1ccn2ncnc2c1 [Example 80, (E)-1-(4-(4-((4-([1,2,4]triazolo[1,5-a]pyridin-7-yloxy)-3-methylphenyl)amino)pyrrolo[2,1-f][1,2,4]triazin-5-yl)-1,4-diazepan-1-yl)-4-morpholinobut-2-en-1-one] | 1.5 to 5 µM | < 0.2 µM | 1.5 to 5 µM
Cc1cc(Nc2ncnn3ccc(N4CC(NC(=O)/C=C/CN5CCOCC5)C4)c23)ccc1Oc1ccn2ncnc2c1 [Example 81, (E)-N-(1-(4-((4-([1,2,4]triazolo[1,5-a]pyridin-7-yloxy)-3-methylphenyl)amino)pyrrolo[2,1-f][1,2,4]triazin-5-yl)azetidin-3-yl)-4-morpholinobut-2-enamide] | 1.5 to 5 µM | 0.2 to 0.5 µM | 1.5 to 5 µM
Cc1cc(Nc2ncnn3ccc(C4CN(C(=O)/C=C/CN5CCC(F)(F)C5)C4)c23)ccc1Oc1ccn2ncnc2c1 [Example 84, (E)-1-(3-(4-((4-([1,2,4]triazolo[1,5-a]pyridin-7-yloxy)-3-methylphenyl)amino)pyrrolo[2,1-f][1,2,4]triazin-5-yl)azetidin-1-yl)-4-(3,3-difluoropyrrolidin-1-yl)but-2-en-1-one] | 1.5 to 5 µM | < 0.2 µM | 0.2 to 0.5 µM
Cc1cc(Nc2ncnn3ccc(C4CN(C(=O)/C=C/CN5CCC(F)(F)CC5)C4)c23)ccc1Oc1ccn2ncnc2c1 [Example 85, (E)-1-(3-(4-((4-([1,2,4]triazolo[1,5-a]pyridin-7-yloxy)-3-methylphenyl)amino)pyrrolo[2,1-f][1,2,4]triazin-5-yl)azetidin-1-yl)-4-(4,4-difluoropiperidin-1-yl)but-2-en-1-one] | 1.5 to 5 µM | < 0.2 µM | < 0.2 µM
Cc1cc(Nc2ncnn3ccc(C4CN(C(=O)/C(C#N)=C/C(C)(C)C)C4)c23)ccc1Oc1ccn2ncnc2c1 [Example 89, (E)-2-(3-(4-((4-([1,2,4]triazolo[1,5-a]pyridin-7-yloxy)-3-methylphenyl)amino)pyrolo[2,1-f][1,2,4]triazin-5-yl)azetidine-1-carbonyl)-4,4-dimethylpent-2-enenitrile] | 1.5 to 5 µM | 1.5 to 5 µM | 1.5 to 5 µM
Cc1cc(Nc2ncnn3ccc(C4CN(C(=O)/C(F)=C/C5CCCN5C)C4)c23)ccc1Oc1ccn2ncnc2c1 (stereo not drawn) [Example 92, (Z)-1-(3-(4-((4-([1,2,4]triazolo[1,5-a]pyridin-7-yloxy)-3-methylphenyl)amino)pyrrolo[2,1-f][1,2,4]triazin-5-yl)azetidin-1-yl)-2-fluoro-3-(1-methylpyrrolidin-2-yl)prop-2-en-1-one] | 1.5 to 5 µM | < 0.2 µM | < 0.2 µM
COC1CN(C/C=C/C(=O)N2CCC(c3ccn4ncnc(Nc5ccc(Oc6ccn7ncnc7c6)c(C)c5)c34)CC2)C1 [Example 117, (E)-1-(4-(4-((4-([1,2,4]triazolo[1,5-a]217midazol-7-yloxy)-3-methylphenyl)amino)pyrrolo[2,1-f][1,2,4]triazin-5-yl)piperidin-1-yl)-4-(3-methoxyazetidin-1-yl)but-2-en-1-one] | 1.5 to 5 µM | < 0.2 µM | < 0.2 µM
COC1CCN(C/C=C/C(=O)N2CCC(c3ccn4ncnc(Nc5ccc(Oc6ccn7ncnc7c6)c(C)c5)c34)CC2)C1 (stereo not drawn) [Example 118, E-1-(4-(4-((4-([1,2,4]triazolo[1,5-a]217midazol-7-yloxy)-3-methylphenyl)amino)pyrrolo[2,1-f][1,2,4]triazin-5-yl)piperidin-1-yl)-4-(3-methoxypyrrolidin-1-yl)but-2-en-1-one] | 1.5 to 5 µM | < 0.2 µM | < 0.2 µM
Cc1cc(Nc2ncnn3ccc(C4CCN(C(=O)/C=C/CN5CC6COCC6C5)CC4)c23)ccc1Oc1ccn2ncnc2c1 (stereo not drawn) [Example 119, E-1-(4-(4-((4-([1,2,4]triazolo[1,5-a]218midazol-7-yloxy)-3-methylphenyl)amino)pyrrolo[2,1-f][1,2,4]triazin-5-yl)piperidin-1-yl)-4-(tetrahydro-1H-furo[3,4-c]pyrrol-5(3H)-yl)but-2-en-1-one] | 1.5 to 5 µM | < 0.2 µM | < 0.2 µM
Cc1cc(Nc2ncnn3ccc(C4CCN(C(=O)/C=C/CN5CCC6(COC6)C5)CC4)c23)ccc1Oc1ccn2ncnc2c1 [Example 120, E-1-(4-(4-((4-([1,2,4]triazolo[1,5-a]218midazol-7-yloxy)-3-methylphenyl)amino)pyrrolo[2,1-f][1,2,4]triazin-5-yl)piperidin-1-yl)-4-(2-oxa-6-azaspiro[3.4]octan-6-yl)but-2-en-1-one] | 1.5 to 5 µM | < 0.2 µM | < 0.2 µM
C=CC(=O)N1CCN(c2ccn3ncnc(Nc4ccc(Oc5ccc6c(c5)ncn6C)c(C)c4)c23)CC1 [Example 121, 1-(4-(4-((3-methyl-4-((1-methyl-1H-benzo[d]imidazol-5-yl)oxy)phenyl)amino)pyrrolo[2,1-f][1,2,4]triazin-5-yl)piperazin-1-yl)prop-2-en-1-one] | 0.5 to 1.5 µM | < 0.2 µM | < 0.2 µM
Cc1cc(Nc2ncnn3ccc(C4CCN(C(=O)/C=C/CN5CCC6(COC6)C5)CC4)c23)ccc1Oc1ccc2c(c1)ncn2C [Example 129, (E)-1-(4-(4-((3-methyl-4-((1-methyl-1H-benzo[d]imidazol-5-yl)-oxy)phenyl)amino)-pyrrolo[2,1-f][1,2,4]triazin-5-yl)piperidin-1-yl)-4-(2-oxa-6-azaspiro[3.4]octan-6-yl)but-2-en-1-one] | 1.5 to 5 µM | < 0.2 µM | < 0.2 µM
Cc1cc(Nc2ncnn3ccc(C4CCN(C(=O)/C=C/CN(C)C)CC4)c23)ccc1Oc1ccc2c(c1)ncn2C [Example 133, (E)-4-(dimethylamino)-1-(4-(4-((3-methyl-4-((1-methyl-1H-benzo[d]234midazole-5-yl)oxy)phenyl)amino)pyrrolo[2,1-f][1,2,4]triazin-5-yl)piperidin-1-yl)but-2-en-1-one] | 1.5 to 5 µM | < 0.2 µM | < 0.2 µM
Cc1cc(Nc2ncnn3ccc(C4CN(C(=O)/C=C/CN(C)C)C4)c23)ccc1Oc1ccn2cnnc2c1 [Example 134, (E)-1-(3-(4-((4-([1,2,4]triazolo[4,3-a]pyridin-7-yloxy)-3-methylphenyl)amino)pyrrolo[2,1-f][1,2,4]triazin-5-yl)azetidin-1-yl)-4-(dimethylamino)but-2-en-1-one] | 1.5 to 5 µM | 0.2 to 0.5 µM | 1.5 to 5 µM
